Results on five molecules are retold here after paper PMC11843613, “Further Optimization of the mGlu1 PAM VU6024578/BI02982816: Discovery and Characterization of VU6033685” (ACS Chemical Neuroscience, 2025).

Data set [1] in a line: Rat CNS penetration (brain:plasma). The format is in vivo. The settings on record: male, Sprague-Dawley, intraperitoneal, 10 mg/kg; for Kp at 0.25 h: brain and plasma, rat brain:plasma; for Kp uu at 0.25 h: rat, brain/plasma. The method, then:
In vivo DMPK experimental
Compounds were formulated as 10% tween 80 micro suspensions in sterile water at the concentration of 1 mg/ml and administered intraperitoneally to male Sprague- Dawley rats weighing 225 to 250 g (Harlan, Inc., Indianapolis, IN) at the dose of 10 mg/kg. The rat blood and brain were collected at 0.25 hr. Animals were euthanized and decapitated, and the brains were removed, thoroughly washed in cold phosphate buffered saline and immediately frozen on dry ice.
Trunk blood was collected in EDTA Vacutainer tubes, and plasma was separated by centrifugation and stored at -80°C until analysis. Plasma was separated by centrifugation (4000 rcf, 4°C) and stored at […] until analysis. On the day of analysis, frozen whole-rat brains were weighed and diluted with 1:3 (w/w) parts of 70:30 isopropanol:water. The mixture was then subjected to mechanical homogenation employing a Mini-Beadbeater™ and 1.0 mm Zirconia/Silica Beads (BioSpec Products) followed by centrifugation. The sample extraction of plasma (20 μL) or brain homogenate (20 μL) was performed by a method based on protein precipitation using three volumes of ice-cold acetonitrile containing an internal standard (50 ng/mL carbamazepine). The samples were centrifuged (3000 rcf, 5 min) and supernatants transferred and diluted 1:1 (supernatant: water) into a new 96 well plate, which was then sealed in preparation for LC/MS/MS […]
In vivo samples were analyzed via electrospray ionization (ESI) on an AB Sciex API-5500 QTrap (Foster City, CA) instrument that was coupled with Shimadzu LC-20AD pumps (Columbia, MD) and a Leap Technologies CTC PAL auto-sampler (Carrboro, NC). Analytes were separated by gradient elution using a Fortis C18 3.0 x 50 mm, 3 µm column (Fortis Technologies Ltd, Cheshire, UK) thermostated at 40°C. HPLC mobile phase A was 0.1% formic acid in water (pH unadjusted), mobile phase B was 0.1% formic acid in acetonitrile (pH unadjusted). The gradient started at 30% […]
min and returned to 30% B in 0.1 min followed by a re-equilibration (0.9 min). The total run time was 2.5 min and the HPLC flow rate was 0.5 mL/min. The source temperature was set at 500°C and mass spectral analyses were performed using multiple reaction monitoring (MRM), with transitions specific for each compound utilizing a Turbo-Ionspray® source in positive ionization […]
mode (5.0 kV spray voltage). The calibration curves were constructed in blank plasma. All data were analyzed using AB Sciex Analyst software v1.5.1.
All animal study procedures were approved by the Institutional Animal Care and Use Committee and were conducted in accordance with the National Institutes of Health regulations of animal care covered in Principles of Laboratory Animal Care (National Institutes of Health). […]
GraphPad Prism (version 4.03, GraphPad, La Jolla, CA). […]

The target in data set [2] is T1, CYP450 1A2 (Homo sapiens, UniProt P05177).
T1 construct: 0.1 mg/mL human liver microsomes (HLM); from tissue; host or cells: human liver microsomes
T1 sequence (P05177 1-516): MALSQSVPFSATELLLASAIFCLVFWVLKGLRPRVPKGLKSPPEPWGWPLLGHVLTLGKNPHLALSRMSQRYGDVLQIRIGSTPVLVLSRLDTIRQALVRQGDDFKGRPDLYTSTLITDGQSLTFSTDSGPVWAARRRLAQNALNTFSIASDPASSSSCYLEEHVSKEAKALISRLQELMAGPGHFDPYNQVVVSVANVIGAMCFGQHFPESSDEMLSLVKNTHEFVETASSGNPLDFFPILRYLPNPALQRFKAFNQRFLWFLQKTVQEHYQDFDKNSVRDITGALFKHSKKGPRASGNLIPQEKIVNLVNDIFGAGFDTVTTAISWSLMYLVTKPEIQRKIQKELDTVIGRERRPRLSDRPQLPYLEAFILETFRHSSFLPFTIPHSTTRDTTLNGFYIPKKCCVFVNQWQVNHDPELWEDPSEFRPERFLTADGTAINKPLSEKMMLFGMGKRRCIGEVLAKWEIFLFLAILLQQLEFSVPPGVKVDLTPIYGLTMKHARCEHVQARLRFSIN
Description: Inhibition of cytochrome P450 enzymes in human liver microsomes, 1A2. It is filed as in vitro ADME. The method, then:
Inhibition of Cytochrome P450 Enzymes: A cocktail of substrates for cytochrome P450 enzymes (1A2: Phenacetin, 10 µM; 2C9: Diclofenac, 5 µM; 2D6: Dextromethorphan, 5 µM; 3A4:
Midazolam, 2 µM) were mixed for cocktail analysis. For P450 2C19, the substrate stock (Mephenytoin, 40 µM )and substrate mix were prepared separately for discrete analysis. The […]
positive control for pan-P450 inhibition (miconazole) was included alongside each test compound […]
A reaction mixture of 100 mM Kpi, pH 7.4, 0.1 mg/mL human liver microsomes (HLM) and Substrate Mix is prepared and aliquoted into a 96-deepwell block. Test compound and positive control (in duplicate) were then added such that the final concentration of test compound ranged from 0.1 – 30 µM. The plate was vortexed briefly and then pre-incubated at 37 °C while shaking for 15 minutes. The reaction was initiated with the addition of NADPH (1 mM final concentration). The incubation continued for 8 min and the reaction quenched by 2x volume of cold acetonitrile containing internal standard (50 nM carbamazepine). The plate was centrifuged for 10 minutes (4000 rcf, 4°C) and the resulting supernatant diluted 1:1 with water for LC/MS/MS analysis. A 12 point standard curve of substrate metabolites over the range of 0.98 nM to 2000 […]
Samples were analyzed via electrospray ionization (ESI) on an AB Sciex API-4000 (Foster City, CA) triple-quadrupole instrument that was coupled with Shimadzu LC-10AD pumps (Columbia, MD) and a Leap Technologies CTC PAL auto-sampler (Carrboro, NC). Analytes were separated by gradient elution using a Fortis C18 3.0 x 50 mm, 3 µm column (Fortis Technologies Ltd, Cheshire, UK) thermostated at 40°C. HPLC mobile phase A was 0.1% formic acid in water (pH unadjusted), mobile phase B was 0.1% formic acid in acetonitrile (pH unadjusted). The gradient […]
90% B for 0.1 min and returned to 10% B in 0.1 min followed by a re-equilibration (0.9 min). The total run time was 2.5 min and the HPLC flow rate was 0.5 mL/min. The source temperature was set at 500°C and mass spectral analyses were performed using multiple reaction monitoring (MRM), with transitions specific for each compound utilizing a Turbo-Ionspray® source in positive ionization mode (5.0 kV spray voltage).
The IC50 values for each compound were obtained for the individual CYP enzymes by quantitating the inhibition of metabolite formation for each probe substrate. A 0 µM compound condition (or control) was set to 100% enzymatic activity and the effect of increasing test compound concentrations on enzymatic activity could then be calculated from the % of control activity.
Curves were fitted using XLfit 5.2.2 (four-parameter logistic model, equation 201) to determine the concentration that produces half-maximal inhibition (IC50).

In data set [3] the target is rat mGlu1 (Rattus norvegicus, UniProt P23385). Description: mGlu1 PAM functional assay (rat). It is filed as cell-based.
Chain of rat mGlu1 (P23385 19-1199): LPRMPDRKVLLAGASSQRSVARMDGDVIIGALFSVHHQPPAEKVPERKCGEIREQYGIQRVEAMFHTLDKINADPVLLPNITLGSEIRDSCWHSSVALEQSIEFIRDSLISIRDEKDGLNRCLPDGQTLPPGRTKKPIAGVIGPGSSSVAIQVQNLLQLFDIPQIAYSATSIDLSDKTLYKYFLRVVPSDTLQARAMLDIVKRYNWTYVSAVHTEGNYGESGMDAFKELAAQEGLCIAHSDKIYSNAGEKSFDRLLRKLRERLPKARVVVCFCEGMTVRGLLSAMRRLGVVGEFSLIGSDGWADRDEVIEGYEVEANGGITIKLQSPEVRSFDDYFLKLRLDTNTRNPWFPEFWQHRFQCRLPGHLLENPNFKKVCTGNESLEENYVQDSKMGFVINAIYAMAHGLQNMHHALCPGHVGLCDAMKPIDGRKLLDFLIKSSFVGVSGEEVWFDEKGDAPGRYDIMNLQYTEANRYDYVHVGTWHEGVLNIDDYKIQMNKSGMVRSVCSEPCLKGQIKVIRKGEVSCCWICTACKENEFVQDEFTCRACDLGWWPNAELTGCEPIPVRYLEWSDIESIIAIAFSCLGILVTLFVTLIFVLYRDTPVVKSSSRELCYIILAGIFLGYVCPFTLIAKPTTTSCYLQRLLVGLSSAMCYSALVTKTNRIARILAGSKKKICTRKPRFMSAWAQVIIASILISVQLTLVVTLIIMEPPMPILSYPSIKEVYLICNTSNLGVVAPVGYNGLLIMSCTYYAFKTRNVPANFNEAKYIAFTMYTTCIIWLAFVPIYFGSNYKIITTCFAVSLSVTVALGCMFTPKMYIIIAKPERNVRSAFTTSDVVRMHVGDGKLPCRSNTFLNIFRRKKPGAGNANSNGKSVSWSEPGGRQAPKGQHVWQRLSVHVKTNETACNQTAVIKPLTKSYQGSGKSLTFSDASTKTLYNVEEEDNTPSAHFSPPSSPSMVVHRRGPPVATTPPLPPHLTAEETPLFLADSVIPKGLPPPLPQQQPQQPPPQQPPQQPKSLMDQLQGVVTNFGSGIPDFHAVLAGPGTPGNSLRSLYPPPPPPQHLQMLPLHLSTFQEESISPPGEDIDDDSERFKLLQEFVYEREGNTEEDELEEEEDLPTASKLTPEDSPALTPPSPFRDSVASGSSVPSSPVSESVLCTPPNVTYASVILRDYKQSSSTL

In data set [1], `Cn1cc(-c2cc(CNC(=O)c3cc(-c4ccco4)ccc3Cl)n(C)n2)cn1` [compound 4] came in with a Kp at 0.25 h of 0.89 and a Kp uu at 0.25 h of 0.98. For the same molecule, the IC50 in data set [2] turned out to be 14.7 µM. Moreover, in data set [3], the EC50 was determined as 0.037 µM and the “rat mGlu1 Glu Max” value was 137%.
Taken in the same sequence, the figures for `Cn1nc(-c2ccnn2C)cc1CNC(=O)c1cc(-n2cccn2)ccc1Cl` [compound 5] were 0.3, 0.52, above 30 µM, 0.558 µM and 105%.
Regarding `Cc1nc2ccccc2cc1CNC(=O)c1cc(-n2cccn2)ccc1Cl` [compound 6], half-maximal inhibition in data set [2] (IC50) was put at 15.9 µM.
In data set [1], `Cc1nc2c(F)cccc2cc1CNC(=O)c1cc(-n2cccn2)ccc1Cl` [compound 7] gave a Kp at 0.25 h of 0.98. In data set [2], this molecule returned an IC50 of 11.2 µM.
As for `Cc1nc(C2CC2)ccc1CNC(=O)c1cc(-n2cccn2)ccc1Cl` [compound 8], in data set [1], the Kp at 0.25 h came to 1.8 and the Kp uu at 0.25 h was found to be 1.2. In addition, the IC50 in data set [2] amounted to 26 µM. Also, in data set [3], the EC50 turned out to be 0.107 µM and the “rat mGlu1 Glu Max” value was found to be 94%.
